Results published in PMC10381309 (Journal of Fungi, 2023).

Key:
[1] = system: Fonsecaea pedrosoi (CFP 00791); test: Urease production in Christensen urea broth (OD 559 nm); assay type: cell-based; settings: F. pedrosoi; ½ MIC albendazole; 7 and 12 days, 37 °C
Method: (§1) To verify urease production, three strains: Fonsecaea pedrosoi (CFP 00791) Cladophialophora carrionii (CFP 00910), and Exophiala heteromorpha (ATCC® 28180), corresponding to the three major chromoblastomycosis agents worldwide, were cultured on PDA for seven days and further cultured in Christensen urea broth in the presence and absence of albendazole at a ½ MIC concentration. Candida albicans and Cryptococcus neoformans were used as negative and positive controls of the culture medium, respectively. In brief, fungal suspensions were adjusted to a concentration of 10^6 cells/mL and used for inoculation. A volume of 500 μL of these suspensions were inoculated into 4.5 mL of Christensen urea broth and the tubes were then incubated under agitation (150 rpm) at 37 °C. At the end of seven and 12 days of incubation, the tubes were centrifuged, and a volume of 100 μL of the supernatant was transferred to a 96-well plate; this procedure was performed in triplicate. The absorbances of the samples were read on a SpectraMax plus 384 spectrophotometer (Molecular Devices, San José, CA, USA) at 559 nm, as previously described by Almeida-Paes et al.. Results were analyzed statistically using the two-way ANOVA test with multiple comparisons. p values lower than 0.05 were considered significant.

[2] = system: Cladophialophora carrionii (CFP 00910); test: as above; assay type: cell-based; settings: C. carrionii; ½ MIC albendazole; 7 and 12 days, 37 °C
Method: as §1

[3] = system: Exophiala heteromorpha (ATCC 28180); test: as above; assay type: cell-based; settings: E. heteromorpha; ½ MIC albendazole; 7 and 12 days, 37 °C
Method: as §1

[4] = system: Fonsecaea pedrosoi (CFP 00791); settings: F. pedrosoi; PDA; 7 days, 37 °C; albendazole at ½ MIC
Method: (§2) At the end of the seven days of incubation at 37 °C, the plates were read visually. The aspect of the colonies supplemented with albendazole were compared to those of the positive melanin and inhibition melanin controls, to determine whether the color of the albendazole-supplemented cultures resembled the positive DHN-melanin or the melanin inhibition control. Pictures of the colonies were captured using a Canon EOS Rebel T7+ digital camera.

[5] = system: Cladophialophora carrionii (CFP 00910); settings: C. carrionii; PDA; 7 days, 37 °C; albendazole at ½ MIC
Method: as §2

CCCSc1ccc2nc(NC(=O)OC)[nH]c2c1 [Albendazole] was tested, and the urease secretion [1] was “increased secretion of urease”, the urease secretion [2] was “decrease in urease secretion” and the urease secretion [3] was “decrease in urease secretion”. For the same compound, the melanin production [4] was “did not observe a decrease in melanin production” and the melanin production [5] was “did not observe a decrease in melanin production”.
